T1: E. coli purine nucleoside phosphorylase (PNP) (Escherichia coli, UniProt P0ABP8)
T1 construct: gene deoD
T1 sequence (P0ABP8 2-239): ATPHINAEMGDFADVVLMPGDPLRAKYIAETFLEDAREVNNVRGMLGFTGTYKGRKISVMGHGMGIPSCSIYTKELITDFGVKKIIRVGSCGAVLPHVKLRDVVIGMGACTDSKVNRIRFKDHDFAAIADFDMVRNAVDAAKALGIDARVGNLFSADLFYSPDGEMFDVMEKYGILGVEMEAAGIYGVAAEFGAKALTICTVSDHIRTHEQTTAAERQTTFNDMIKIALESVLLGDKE

B1: E. coli purine nucleoside phosphorylase (PNP) (Escherichia coli K-12) (protein)
chain: T1 sequence (P0ABP8 2-239)

What was measured:
[1] = target: T1, E. coli purine nucleoside phosphorylase (PNP); assay: HPLC inosine phosphorolysis assay with recombinant enzyme, non-competitive inhibition kinetics; format: biochemical
purified protein = substrate: OC[C@H]1O[C@@H](n2cnc3c(O)ncnc32)[C@H](O)[C@@H]1O; assay: purified protein; format: biochemical, Escherichia coli; conditions: phosphate active site

Molecule | Ki [1] | Km (purified protein) | kcat (purified protein)
Nc1ccncc1-c1cnn([C@@H]2C[C@H](O)[C@@H](O)[C@H]2O)c1 [compound 1, 1-(2′,3′,4′-Trihydroxycyclopent-1′-yl)-4-(4-aminopyridin-3-yl)pyrazole] | 17 ± 4 mM |  | 
Nc1ncccc1-c1cnn([C@@H]2C[C@H](O)[C@@H](O)[C@H]2O)c1 [compound 2, 1-(2′,3′,4′-Trihydroxycyclopent-1′-yl)-4-(2-aminopyridin-3-yl)pyrazole] | 14 ± 1 mM |  | 
Nc1ncncc1-c1cnn([C@@H]2C[C@H](O)[C@@H](O)[C@H]2O)c1 [compound 3, 1-(2′,3′,4′-Trihydroxycyclopent-1′-yl)-4-(4-aminopyrimidin-3-yl)pyrazole] | 24 ± 3 mM |  | 
B1 |  | 130 ± 10 µM | 900 ± 60 s⁻¹

Source: PMC9114674, “Synthesis of New 5′-Norcarbocyclic Aza/Deaza Purine Fleximers - Noncompetitive Inhibitors of E.coli Purine Nucleoside Phosphorylase” (Frontiers in Chemistry, 2022)
